Several values for one entry are separate records, joined by “and”; a condition that tells them apart may be missing. Identical values can stand only once.
What was measured:
[1] = MOLM-13 CDX multiple ascending dose study; type: in vivo; details: male, mouse, in vivo, po; daily p.o., MOLM-13 CDX NCG mice; read-out: maximum tolerated dose (MTD), daily dose
Excerpt: (§1) Male 8- to 12-week-old NCG mice (NOD-Prkdc^em26Cd52Il2rg^em26Cd22/NjuCrl, Charles River) were engrafted with 1 × 10^5 cells via tail vein i.v. injection. Four days after engraftment (day 1 of treatment), mice (n = 10/arm) were randomized to receive p.o. qd vehicle (40% HPβCD) or ascending doses of oral HOSU-53.

[2] = system: MOLM-13 disseminated CDX AML model; experiment: MOLM-13 CDX multiple ascending dose study; type: in vivo
Excerpt: as §1

plasma DHO = experiment: DHO plasma accumulation in MOLM-13 tumor-bearing mice; type: in vivo, NCG mice; parameters: unit not given here; details: male mice, per mouse
Method: Male 8- to 12-week-old NCG mice were engrafted with 1 × 10^5 cells via tail vein i.v. injection. […] Figure 3B and Figure 4, A and B, share the same vehicle group. page 6: Plasma samples were obtained following appropriate dosing administration and saved in the -80°C freezer till the time of analysis. Analyses by LC-MS/MS followed sample extraction by protein precipitation and separation by Ultra Performance Liquid Chromatography (UPLC, Waters Corporation, MA, USA) using a C18 column, 1.7um, 2.1x50mm, Mobile Phase A: 5:95:0.1 (v:v:v) Acetonitrile:Water:Formic Acid, Mobile Phase B: 50:50:0.1 (v:v:v) Methanol:Acetonitrile:Formic Acid. MS/MS analyses were performed on an API-6500 (Absciex MA, USA) in positive mode using an electrospray source at 550°C. The internal standard was d4-AEA monitored at 352.2 and 66.0 m/z transitions and the target analyte, HOSU-53, was monitored at 416.5 and 331.1 m/z transitions. The assay was qualified between 10-5,000 ng/ml HOSU53 to be within ±20% for QCs above the LLOQ in this range and ±25% at the LLOQ. DHO concentration quantification in mouse plasma samples. Plasma samples were obtained following appropriate dosing administration and saved in the -80°C freezer till the time of analysis. Analyses by LC-MS/MS followed sample extraction by protein precipitation and separation by Ultra Performance Liquid Chromatography (UPLC, Waters Corporation, MA, USA) using a Phenomenex Aqua C18 100x4.6mm, 3uM, […], Mobile Phase A: 100:0.1 (v:v) Water:Formic Acid, Mobile Phase B: 100:0.1 (v:v) Methanol:Formic Acid. MS/MS analyses were performed on an API-4000 (Absciex MA, USA) in negative mode using an electrospray source at 550°C. The internal standard was labeled 13C14_L-Dihydroorotic Acid monitored at 161.3 and 117.1 m/z transitions and the target analyte, L-Dihydroorotic Acid (DHO), was monitored at 157.0 and 70.0 m/z transitions. The assay was qualified between 10.0-30,000 ng/ml DHO to be within ±20% for QCs above the LLOQ in this range and ±25% at the LLOQ.

[3] = system: MOLM-13 disseminated CDX AML model; experiment: MOLM-13 CDX synergy with FLT3 inhibitor gilteritinib (treatment from day 10); type: in vivo, NCG mice
Excerpt: Male 8- to 12-week-old NCG mice were engrafted with 1 × 10^5 cells via tail vein i.v. injection. At 10 days after engraftment (day 1 of treatment), mice (n = 10/arm) were randomized to receive p.o. qd vehicle (50/50 mix of 20% HPβCD and 0.5% methylcellulose + 0.2% Tween 80), […] treatment, day 79. Treatment was predetermined to stop on day 79, after which any remaining mice would be monitored until ERC.

[4] = system: primary AML patient samples; experiment: Flow cytometry CD47 surface expression, primary AML samples; type: cell-based, human; details: 50nM
Method: Cells were thawed in 50% FBS RPMI and then cultured in StemSpan (StemCell Technologies) media supplemented with human FLT3L, SCF, GM-CSF, G-CSF, IL-3, IL-6, TPO, and EPO cytokines for 7 days (LTC).
After 72 hours or 7 days of treatment of DHODHi, cells were collected and washed with PBS, blocked with human Fc block (BioLegend), and stained with antibodies for 30 minutes on ice. Antibodies were washed off and cells resuspended in FACS buffer (2% FBS, 2 mM NaN3, Dulbecco’s PBS) for analysis using BD LSRFortessa or Cytek Aurora spectral flow cytometer. Live/dead exclusion was done using LIVE/DEAD Fixable Near-IR (Invitrogen). All antibodies were purchased from BioLegend except CD47, which was purchased from BD Biosciences: CD11b clone M1/70, CD38 clone HIT2, CD14 clone M5E2, CD47 clone B6H12, CD33 clone WM53, CD3 clone UCHT1, CD19 clone HIB19, and CD45 clone HI30.
Supplemental Figure S.8. DHODHi modulates CD47 surface antigen expression. A) Representative flow cytometry overlay histogram plot for CD47 surface expression in MV4-11 cell line following a 72- […]
supplementation (experiment was done five independent times). B) Flow cytometry analysis of CD47 surface expression in primary AML patient samples (n=8-10) treated in vitro for seven days (long term culture, LTC). Data is shown as mean florescent intensity (MFI) of CD47 gated on live CD45+CD3-CD19- cells, error bars indicate mean with 95% confidence interval. C) Representative flow cytometry […]
modulation of CD47 post DHODHi treatment.
(1 picture or pasted object on this page, not shown here)

In vivo p.o. PK in rat = details: po
Excerpt: Supplement jciinsight-9-173646-s083.xlsx, sheet "Supplemental Table S.2." | column: HOSU-53

SMILES: CCCCOc1cccc(-c2ccc(-c3cc(C(=O)O)c4cc(F)ccc4n3)cc2)c1 [HOSU-53]
- MTD [1]: 10 to 20 mg/kg
- survival advantage vs vehicle ([2]; 1 mg/kg daily p.o., P < 0.05): modest yet significant survival advantage
- tolerability ([2]; 10 mg/kg daily p.o.): well tolerated
- tolerability ([2]; 30 mg/kg daily p.o., after 13 days of treatment): dose-limiting weight loss
- tolerability ([2]; 100 mg/kg daily p.o.): toxic
- Survival, day at event (per animal) ([2]; 0.1 mpk qd p.o.): 18 days and 17 days and 16 days
- Survival, day at event (per animal) ([2]; 1 mpk qd p.o.): 22 days and 25 days and 21 days and 23 days
- Survival, day at event (per animal) ([2]; 10 mpk qd p.o.): 63 days and 62 days and 48 days and 58 days and 61 days and 32 days and 57 days
- Survival, day at event (per animal) ([2]; 30 mpk qdx13, holiday, 20 mpk qd start day 18, flag 0 = censored): 63 days and 15 days and 65 days and 14 days and 71 days and 67 days and ≥ 74 days
- Survival, day at event (per animal) ([2]; 100 mpk qdx6): 10 days and 9 days
- DHO AUC (Figure 3C y value) (plasma DHO; Day 1, 4 mpk PO, 4 mg/kg): 21.3526 and 23.5341 and 32.163
- DHO AUC (Figure 3C y value) (plasma DHO; Day 1, 10 mpk PO, 10 mg/kg): 124.368 and 142.962
- DHO AUC (Figure 3C y value) (plasma DHO; Day 1, 20 mpk PO, 20 mg/kg): 335.03 and 368.431
- DHO AUC (Figure 3C y value) (plasma DHO; Day 1, 30 mpk PO, 30 mg/kg): 473.057 and 298.48 and 280.181
- DHO AUC (Figure 3C y value) (plasma DHO; Day 14, 4 mpk PO, 4 mg/kg): 78.3977 and 135.263 and 128.423
- DHO AUC (Figure 3C y value) (plasma DHO; Day 14, 10 mpk PO, 10 mg/kg): 243.197 and 313.781 and 310.505
- DHO AUC (Figure 3C y value) (plasma DHO; Day 14, 20 mpk PO, 20 mg/kg): 796.864 and 742.741 and 1170.82
- DHO AUC (Figure 3C y value) (plasma DHO; Day 14, 30 mpk PO, 30 mg/kg): 464.129 and 594.047 and 535.223
- median survival ([3]; 10 mg/kg HOSU-53 daily p.o.): 48 days
- Survival, day of study at event (per animal) ([3]; 4 mpk HOSU-53 poqd): 40 days and 35 days and 44 days and 43 days and 37 days and 39 days
- Survival, day of study at event (per animal) ([3]; 10 mpk HOSU-53 poqd): 54 days and 44 days and 43 days and 59 days and 58 days and 52 days
- CD47 MFI ([4]; Pt.12, DMSO 1559.17): 2087.23
- CD47 MFI ([4]; Pt.13, DMSO 1665.27): 1161.83
- CD47 MFI ([4]; Pt.14, DMSO 585.79): 749.14
- CD47 MFI ([4]; Pt.15, DMSO 1002.16): 904.23
- CD47 MFI ([4]; Pt.16, DMSO 1349.33): 1418.1
- CD47 MFI ([4]; Pt.17, DMSO 334.61): 360.19
- CD47 MFI ([4]; Pt.18, DMSO 869.17): 1060.36
- CD47 MFI ([4]; Pt.19, DMSO 364.4): 532.16
- CD47 MFI ([4]; Pt.20, DMSO 398.54): 525.38
- CD47 MFI ([4]; Pt.2, DMSO 446.9): 436.9
- bioavailability (In vivo p.o. PK in rat; read-out: in vivo p.o. bioavailability (F)): 59%
- half-life (In vivo p.o. PK in rat; read-out: in vivo p.o. t1/2 (converted)): 7.6 h

Source: publication PMC11141866, “Pyrimidine depletion enhances targeted and immune therapy combinations in acute myeloid leukemia” (JCI Insight, 2024)
